The results in this text go back to patent US9000043B2, “Phenoxyethoxy compounds” (Eli Lilly and Company, priority 2013, dated 2015).

The target of one assay is human EP1 (Homo sapiens (Human), UniProt P34995). Briefly: In vitro binding to human EP1 ([3H]-PGE2 displacement, membranes). The following applies: HEK293 membranes, [3H]-PGE2, n = 1; read-out: hEP1, Ki. As for the experimental part: (§1) hEP1 and hEP4 membranes are prepared from recombinant HEK293 cells stably expressing the human EP1 (Genbank accession number AY275470) or EP4 (Genbank accession number AY429109) receptors. hEP2 and hEP3 membranes are prepared from HEK293 cells transiently transfected with EP2 (Genbank accession number AY275471) or EP3 (isoform VI: Genbank accession number AY429108) receptor plasmids. Frozen cell pellets are homogenized in homogenization buffer using a Teflon/glass homogenizer. Membrane protein is aliquoted and quick frozen on dry ice prior to storage at −80° C. Homogenization buffer contained 10 mM Tris-HCl, pH 7.4, 250 mM sucrose, 1 mM EDTA, 0.3 mM indomethacin and plus Complete™, with EDTA, obtained from Roche Molecular Biochemicals (Catalog Number 1 697 498).
(§2) Kd values for [3]H-PGE2 binding to each receptor are determined by saturation binding studies or homologous competition. […] Nonspecific binding is calculated by comparing binding in the presence and absence of 2 μM of PGE2. The membranes are harvested by filtration (TomTek harvester), washed 4 times with cold buffer (10 mM MES pH 6.0 with KOH, 10 mM MgCl2), dried in a 60° C. oven, and the radioactivity is quantified as counts per minute (CPM) using a TopCount detector. Percent specific binding is calculated as the percent of the binding in the absence of any inhibitor, corrected for binding in the presence of 2 μM of PGE2. […]

Another assay addresses human EP2 (Homo sapiens (Human), UniProt P43116). Nature of the assay: In vitro binding to human EP2 ([3H]-PGE2 displacement, membranes). The following applies: HEK293 membranes, [3H]-PGE2, n = 2; read-out: hEP2, Ki. The procedure:
as §1, §2

A further assay addresses human EP3 (isoform VI) (Homo sapiens (Human), UniProt P43115). Nature of the assay: In vitro binding to human EP3 ([3H]-PGE2 displacement, membranes). To be noted: HEK293 membranes, [3H]-PGE2, n = 1; read-out: hEP3, Ki. The procedure:
as §1, §2

Assay [1] deals with T1, human EP4 (Homo sapiens (Human), UniProt P35408). Briefly: In vitro binding to human EP4 ([3H]-PGE2 displacement, membranes). The following applies: HEK293 membranes, [3H]-PGE2, n = 3; read-out: hEP4, Ki. The procedure: as §1, §2
Target sequence in this assay (P35408 whole entry, looked up): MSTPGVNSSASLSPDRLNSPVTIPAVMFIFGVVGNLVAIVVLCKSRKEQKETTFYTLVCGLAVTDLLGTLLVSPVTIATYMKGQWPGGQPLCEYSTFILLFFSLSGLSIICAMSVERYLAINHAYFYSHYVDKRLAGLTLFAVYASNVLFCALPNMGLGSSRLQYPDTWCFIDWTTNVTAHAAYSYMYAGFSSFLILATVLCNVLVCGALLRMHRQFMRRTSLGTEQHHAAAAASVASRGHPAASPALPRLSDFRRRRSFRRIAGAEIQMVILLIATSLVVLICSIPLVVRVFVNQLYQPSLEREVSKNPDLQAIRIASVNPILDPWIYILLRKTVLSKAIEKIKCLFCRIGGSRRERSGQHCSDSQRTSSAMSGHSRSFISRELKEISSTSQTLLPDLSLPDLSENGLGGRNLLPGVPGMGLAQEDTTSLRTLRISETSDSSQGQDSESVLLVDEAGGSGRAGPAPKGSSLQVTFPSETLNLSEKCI
The target of assay [2] is T1, human EP4. Nature of the assay: In vitro human EP4 functional antagonist activity (PGE2-stimulated cAMP, HTRF). The format is cell-based. To be noted: HEK293 cells expressing human EP4, PGE2 at EC80, n=5; read-out: IC50 measured at human EP4 (inhibition of PGE2-stimulated cAMP production). As for the experimental part: Assays are conducted in recombinant HEK293 cells stably expressing human EP4 receptor. The cell lines are maintained by culturing in DMEM with high glucose and pyridoxine hydrochloride (Invitrogen) supplemented with 10% fetal bovine serum (FBS), 1 mM sodium pyruvate, 10 mM HEPES, 500 μg/mL geneticin and 2 mM L-glutamine. Confluent cultures are grown at 37° C. in an atmosphere containing 5% CO2. Cells are harvested using 2.5% Trypsin-EDTA, suspended in freeze media (FBS with 6% DMSO) at 10^7 cells/mL and aliquots are stored in liquid nitrogen. Just before assay, cells are thawed in DMEM, centrifuged, and resuspended in cAMP buffer.
The inhibition of PGE2-stimulated cAMP production by EP4 antagonists is measured using HTRF (Cisbio catalogue #62AM4PEB). An aliquot equivalent to 4000 cells is incubated with 50 μL cAMP assay buffer containing PGE2 in a concentration predetermined to produce an EC80 (0.188 nM PGE2 from Sigma, catalog # P5640-10 mg) and EP4 antagonists at room temperature for 20 minutes. cAMP assay buffer contains 500 mL HBSS, 0.1% BSA, 20 mM HEPES and 200 μM IBMX (Sigma 15879). […] The HTRF signal is detected using an EnVision® plate reader (Perkin-Elmer) to calculate the ratio of fluorescence at 665 nm to that at 620 nm. […]
Target sequence in this assay (P35408 whole entry): as the sequence (P35408 whole entry, looked up) above
(In general: In TR-FRET formats the signal depends on donor and acceptor labels being close together.)

In the next assay the target is rat EP4 (Rattus norvegicus (Rat), UniProt P43114). Nature of the assay: In vitro rat EP4 functional antagonist activity (PGE2-stimulated cAMP, HTRF). To be noted: HEK293 cells expressing rat EP4, PGE2 at EC80, n=1; read-out: IC50 measured at rat EP4 (inhibition of PGE2-stimulated cAMP). The format is cell-based. The procedure:
Rat EP4 cDNA (Genebank Accession# NM_03276) is cloned into pcDNA 3.1 vector and subsequently transfected in HEK293 cells for receptor expression. Rat EP4 stable clone is scaled up and then frozen down as cell bank for future compounds screening. To test EP4 antagonist compounds in rEP4 cells, thaw the frozen cells and then resuspend cells in cAMP assay buffer. The cAMP buffer is made by HBSS without Phenol Red (Hyclone, SH30268) supplemented with 20 mM HEPES (Hyclone, SH30237), 0.1% BSA (Gibco, 15260) and 125 μM IBMX (Sigma, 15879). The cells are plated into 96-well half area flat-bottom polystyrene black plates (Costar 3694). Compounds are serial diluted with DMSO to give 10-point concentration response curves. Then diluted compounds are added into cAMP assay buffer which contains PGE2 (Cayman 14010, in a concentration predetermined to produce an EC80) at ratio of DMSO/buffer at 1/100. The cells are treated with compounds in the presence of PGE2 (EC80 concentration) for 30 minutes at room temperature. The cAMP levels generated from the cells are quantified by a cAMP HTRF assay kit (Cisbio 62AM4PEC). The plates are read on an EnVision plate reader using HTRF optimized protocol (PerkinElmer). IC50s are calculated using Graphpad Prism (v. 4) nonlinear regression, sigmoidal dose response curve fitting.

Assay [3] concerns the target T1, human EP4. Briefly: In vitro antagonist activity in human whole blood (reversal of PGE2 inhibition of LPS-induced TNFα production). The class given is cell-based. To be noted: LPS 10 μg/mL with 10 nM PGE2, geometric mean±SD, n=11, read-out: IC50 in human blood TNFα induction assay. The text has this:
The inhibitory effects of PGE2 on LPS-induced TNFα production from macrophages/monocytes are believed to be mediated by EP4 receptors (See Murase, A., et al., Life Sciences, 82:226-232 (2008)). The ability of the compound of Example 1 to reverse the inhibitory effect of PGE2 on LPS-induced TNFα production in human whole blood is an indicia of functional activity.
Blood is collected from normal volunteer donors into sodium heparin vacutainer tubes. Donors have not taken NSAIDs or celecoxib within 48 hours or glucocorticoids within two weeks prior to the donation. All tubes/donor are pooled into 50 mL Falcon conical centrifuge tubes and 98 μL/well is distributed into 96-well tissue culture plates (Falcon 3072). […] TNFα levels in 2 μL plasma are quantified by a commercially available enzyme immunoassay (R&D Systems DY210), using Immulon 4 HBX plates (Thermo 3855) and 3,3′,5,5′ tetramethylbiphenyl-4,4′-diamine substrate (KPL 50-76-03). The plates are read at A450-A650 on a plate reader (Molecular Devices Versamax) using SOFTmaxPRO (v. 4.3.1) software. IC50s are calculated using Graphpad Prism (v. 4) nonlinear regression, with sigmoidal dose response curve fitting. Results are expressed as the geometric mean±standard deviation; n=number of independent determinations.
Target sequence in this assay (P35408 whole entry, looked up): as above

Sequence of human EP3 (isoform VI) (P43115 other isoform, or with tags, fused parts or gaps): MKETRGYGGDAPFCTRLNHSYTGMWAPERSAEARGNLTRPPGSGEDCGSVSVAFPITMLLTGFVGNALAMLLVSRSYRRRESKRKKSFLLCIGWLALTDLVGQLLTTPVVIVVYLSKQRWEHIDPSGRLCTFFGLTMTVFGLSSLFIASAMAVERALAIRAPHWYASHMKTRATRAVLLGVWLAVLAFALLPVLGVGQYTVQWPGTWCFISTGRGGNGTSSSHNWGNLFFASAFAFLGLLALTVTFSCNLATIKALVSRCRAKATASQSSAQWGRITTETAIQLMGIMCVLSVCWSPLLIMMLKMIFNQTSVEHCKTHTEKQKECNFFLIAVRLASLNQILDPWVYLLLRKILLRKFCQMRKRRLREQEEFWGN
Sequence of rat EP4 (P43114 whole entry): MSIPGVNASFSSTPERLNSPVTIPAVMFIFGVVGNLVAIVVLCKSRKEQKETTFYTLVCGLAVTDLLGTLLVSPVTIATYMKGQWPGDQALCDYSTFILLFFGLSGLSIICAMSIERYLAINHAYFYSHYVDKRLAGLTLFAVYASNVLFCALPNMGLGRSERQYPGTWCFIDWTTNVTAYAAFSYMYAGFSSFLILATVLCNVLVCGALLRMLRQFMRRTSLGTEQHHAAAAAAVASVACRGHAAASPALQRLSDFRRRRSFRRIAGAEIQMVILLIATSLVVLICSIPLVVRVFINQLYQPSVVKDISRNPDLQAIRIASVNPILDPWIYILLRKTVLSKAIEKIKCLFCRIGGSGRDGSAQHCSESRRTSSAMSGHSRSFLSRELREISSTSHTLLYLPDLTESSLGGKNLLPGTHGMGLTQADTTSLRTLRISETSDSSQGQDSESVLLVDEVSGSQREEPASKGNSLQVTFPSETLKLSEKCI
Sequence of human EP1 (P34995 whole entry, canonical isoform): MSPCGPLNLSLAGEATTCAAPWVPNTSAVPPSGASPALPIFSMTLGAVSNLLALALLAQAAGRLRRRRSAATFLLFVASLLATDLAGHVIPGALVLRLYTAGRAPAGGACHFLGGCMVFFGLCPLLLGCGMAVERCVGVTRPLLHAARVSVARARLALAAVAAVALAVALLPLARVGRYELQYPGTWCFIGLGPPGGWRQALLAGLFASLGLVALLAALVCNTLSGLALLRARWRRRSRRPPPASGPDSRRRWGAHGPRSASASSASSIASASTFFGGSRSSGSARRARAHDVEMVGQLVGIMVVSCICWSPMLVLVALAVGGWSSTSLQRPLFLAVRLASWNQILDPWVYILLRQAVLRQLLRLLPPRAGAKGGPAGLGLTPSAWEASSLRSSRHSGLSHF
Sequence of human EP2 (P43116 whole entry): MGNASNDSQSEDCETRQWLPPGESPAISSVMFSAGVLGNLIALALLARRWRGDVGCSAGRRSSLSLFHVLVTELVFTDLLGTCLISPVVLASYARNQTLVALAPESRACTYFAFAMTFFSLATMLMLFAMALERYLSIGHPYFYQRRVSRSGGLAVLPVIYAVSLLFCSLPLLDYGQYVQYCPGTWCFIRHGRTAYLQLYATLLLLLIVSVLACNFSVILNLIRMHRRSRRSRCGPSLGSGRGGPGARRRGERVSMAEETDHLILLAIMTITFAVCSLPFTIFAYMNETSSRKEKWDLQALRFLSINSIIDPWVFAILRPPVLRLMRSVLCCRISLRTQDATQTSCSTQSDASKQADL

In general, Ki refers to a dissociation constant, usually derived from enzyme kinetics or from competition with a known ligand. One may read the IC50 as the midpoint of a concentration-inhibition curve. Take `CC(C)[C@@H](OCCOc1ccccc1)C(=O)N[C@@H](C)c1ccc(C(=O)O)cc1` [Example 1, 4-[(1S)-1-[[(2R)-3-methyl-2-(2-phenoxyethoxy)butanoyl]amino]ethyl]benzoic acid]: the Ki was more than 17400 nM at human EP1, 261 ± 108 nM at human EP2, more than 12700 nM at human EP3 (isoform VI) and 0.45 ± 0.26 nM at human EP4 [1]. Also, the results for the concentration for half-maximal inhibition (IC50) at human EP4 [2], at rat EP4 and at human EP4 [3] were 2.2 ± 1.7 nM, 2 nM and 20 ± 24 nM, respectively.
